Measured values: ChEMBL document CHEMBL1147954, “Synthesis and antiproliferative activity of some novel derivatives of diospyrin, a plant-derived naphthoquinonoid” (Bioorg Med Chem, 2007)

How the values were obtained:
[1] = Cytotoxicity against mouse EAC cells after 24 hrs by MTT assay; assay type: functional, cell-based; details: Ehrlich
PBMC = assay: Cytotoxicity against human PBMCs after 24 hrs by MTT assay; assay type: cell-based
A-375 = assay: Cytotoxicity against human A375 cells after 24 hrs by MTT assay; assay type: functional, cell-based; details: A-375, 24 h
HEp-2 = assay: Cytotoxicity against human Hep2 cells after 24 hrs by MTT assay; assay type: functional, cell-based; details: HEp-2, 24 h

| Compound | IC50 [1] | IC50 (PBMC) | IC50 (A-375) | IC50 (HEp-2) |
| --- | --- | --- | --- | --- |
| COc1cc(C)cc2c1C(=O)C=C(c1c(C)cc3c(c1OC)C(=O)C=CC3=O)C2=O | 650 nM | 53300 nM | 200 nM | 390 nM |
| CCOc1cc(C)cc2c1C(=O)C=C(c1c(C)cc3c(c1OCC)C(=O)C=CC3=O)C2=O | 580 nM | 55500 nM | 1070 nM | 2390 nM |
| COc1cc(C)cc2c1C(=O)C=C(c1c(C)cc3c(c1OC)C(=O)C(NCCO)=CC3=O)C2=O | 1070 nM | 21800 nM | 3180 nM | 1410 nM |
| CCOc1cc(C)cc2c(O)c(-c3c(C)cc4c(O)ccc(O)c4c3OCC)cc(O)c12 | 390 nM | 59600 nM | 960 nM | 1670 nM |
| COc1cc(C)cc2c1C(=O)C=C(c1c(C)cc3c(c1OC)C(=O)C(SCCO)=CC3=O)C2=O | 260 nM | 95500 nM | 190 nM | 1730 nM |
| CCOc1cc(C)cc2c1C(=O)C=C(c1c(C)cc3c(c1OCC)C(=O)C(NCCO)=CC3=O)C2=O | 30 nM | 65400 nM | 70 nM | 850 nM |
| COc1cc(C)cc2c1C(=O)C1OC1(c1c(C)cc3c(c1OC)C(=O)C1OC1C3=O)C2=O (stereo unspecified) | 90 nM | 98200 nM | 30 nM | 210 nM |
| Cc1cc(O)c2c(c1)C(=O)C(c1c(C)cc3c(c1O)C(=O)C=CC3=O)=CC2=O [DIOSPYRIN] | 840 nM | 78300 nM | 820 nM | 3580 nM |
| COc1cccc2c1C(=O)c1c(O)c3c(c(O)c1C2=O)C[C@@](O)(C(=O)CO)C[C@@H]3O[C@H]1C[C@H](N)[C@H](O)[C@H](C)O1 [DOXORUBICIN] | > 10000 nM | 15500 nM | 10 nM | 420 nM |
